Results: PubChem BioAssay (NCI)
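Cultured in 96-well plates, cells were exposed to test compound for 48 hours across five concentrations. At the TGI there is no net growth.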

Key:
Assay in all cases: NCI-60 cell line screen, 48 h
[1] = system: CCRF-CEM leukemia
[2] = system: HCT-15 colon
[3] = system: MOLT-4 leukemia
[4] = system: OVCAR-5 ovarian
[5] = system: SK-MEL-28 melanoma
[6] = system: TK-10 renal
[7] = system: A498 renal
[8] = system: HCT-116 colon
[9] = system: NCI-H522 lung
[10] = system: DU-145 prostate

Compound	TGI [1] [µM]	TGI [2] [µM]	TGI [3] [µM]	TGI [4] [µM]	TGI [5] [µM]	TGI [6] [µM]	TGI [7] [µM]	TGI [8] [µM]	TGI [9] [µM]	TGI [10] [µM]
COc1cc2c(c(OC)c1OC)-c1ccc(SC)cc1C(=O)CC2	> 100	> 100	> 100	> 100	> 100	> 100	–	–	–	–
CC(=O)CC(=O)/C=C/c1cccs1	> 100	> 100	> 100	> 100	–	> 100	> 100	> 100	> 100	–
CC(=O)O[C@H]1CC[C@H]2[C@@H]3CCC(C(C)=O)[C@H](C(=O)O)[C@H]3CC[C@]12C (some centres undefined)	> 100	> 100	> 100	> 100	> 100	> 100	> 100	–	> 100	–
C#CCOC(=O)C(N)CCSC (centres undefined)	> 100	–	> 100	> 100	> 100	> 100	> 100	> 100	> 100	> 100
CC1(C)C2CCC(N)(C2)C1O (centres undefined)	> 100	> 100	> 100	> 100	> 100	> 100	> 100	> 100	–	> 100
CN(CCO)/N=N/c1[nH]ncc1C(N)=O	> 100	> 100	> 100	> 100	> 100	–	> 100	> 100	> 100	–
CN1B(c2ccccc2)N(C)C(=O)N(C)C1=O	> 100	> 100	–	> 100	–	> 100	–	> 100	–	> 100
COc1ccccc1N=C1SCCN1C(=S)Nc1ccc(S(=O)(=O)/N=C/N(C)C)cc1	> 100	> 100	> 100	> 100	> 100	> 100	> 100	> 100	–	> 100
O=[N+]([O-])c1cc(Cl)ccc1S(=O)(=O)N1CCCc2cc(Cl)ccc21	> 100	> 100	> 100	> 100	> 100	> 100	> 100	> 100	–	> 100
CC1=CC(=O)/C(=C/n2c(=S)[nH]c3ccccc32)C(=O)O1	> 100	> 100	> 100	> 100	–	> 100	> 100	> 100	> 100	> 100
O=C1C[C@H](c2ccc(O)c(O)c2)Oc2cc(O)cc(O)c21	> 100	> 100	> 100	> 100	> 100	> 100	> 100	> 100	> 100	–
N=C(c1cccs1)C1(N2CCCCC2)CCCCC1	36.2	29.7	30.9	34.6	–	35.7	34	> 100	30.9	30.4
